These results are taken from ChEMBL document CHEMBL1201862, “PubChem BioAssay data set” (2004).

Assay in all cases: inhibition of tumour cell growth, NCI panel, 48 h
For test [1], the system named is A498.
Test [2] relates to A549.
Test [3] concerns CAKI-1.
Test [4] relates to CCRF-CEM.
The test system of test [5] is EKVX.
Test [6] relates to HCC 2998.
Test [7] has as its system LOX IMVI.
Test [8] deals with MDA-MB-435.
Test [9] has as its system MOLT-4.
The subject of test [10] is NCI-H23.
Test [11] concerns NCI-H522.
Test [12] relates to OVCAR-5.
Test [13] relates to OVCAR-8.
In test [14] the test system is RXF 393.
In test [15] the test system is SF-268.
The subject of test [16] is SN12C.
The test system of test [17] is SNB-19.
The test system of test [18] is SR.
Test [19] deals with SW-620.
For test [20], the system named is UO-31.

SMILES strings stand for the structures.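 96-well plates; 48 h exposure; 5 concentrations. Endpoints by linear interpolation between flanking doses. Not reached: highest tested concentration assigned. At the GI50, growth is halved.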 Activity calls are given as the source filed them. Cut-off read from the data, not from the text of the source: active = GI50 up to about 1.1 µM and inactive = higher.

Consider `CCOP1(=O)C=C(Sc2ccc([N+](=O)[O-])cc2[N+](=O)[O-])C(C)(C)O1` (centres undefined), for which the GI50 in test [1] was 25.6 µM (inactive); in test [2], 19.9 µM (inactive); in test [3], 11.7 µM (inactive); in [4], 2.42 µM (inactive); in test [5], 14.4 µM (inactive); in test [6] it was 18.6 µM (inactive). Also, the GI50 was 3.83 µM (inactive) in test [7]; 11.4 µM (inactive) in test [8]; 4.13 µM (inactive) in test [9]; 18.3 µM (inactive) in [10]; 3.64 µM (inactive) in [11]; 21.2 µM (inactive) in test [12]. Further, the GI50 in [13] was 16.7 µM (inactive); in [14], 17.9 µM (inactive); in [15], 17.6 µM (inactive); in [16], 10.3 µM (inactive); in test [17], 27.6 µM (inactive); in [18], 3.59 µM (inactive). For the same compound, the GI50 in test [19] was 11.6 µM (inactive); in test [20] it was 14.9 µM (inactive).

On to `COC(=O)c1sc2nc(Nc3ccccc3)/c(=N\c3ccccc3)sc2c1C`, for which the GI50 was 53.7 µM (inactive) in test [1]; 65.8 µM (inactive) in test [2]; 58.6 µM (inactive) in [3]; > 100 µM (inactive) in test [4]; 59.6 µM (inactive) in [5]; > 100 µM (inactive) in [6]. Further, the GI50 in test [7] was > 100 µM (inactive); in test [8], > 100 µM (inactive); in test [9], > 100 µM (inactive); in test [10], 94.4 µM (inactive); in test [11] it was 30.3 µM (inactive); in test [12], > 100 µM (inactive). In addition, the GI50 was 64.1 µM (inactive) in test [13]; 24.3 µM (inactive) in test [14]; 57.3 µM (inactive) in [15]; 92.9 µM (inactive) in [16]; 36.6 µM (inactive) in test [17]; 47.6 µM (inactive) in [18]. Also, the GI50 in test [19] and in test [20] was > 100 µM (inactive) throughout.

As to `CC1(C)CCOC(=O)C(Cl)CC1Cl` (centres undefined), the GI50 in [1], in test [2], in test [3], in test [4], in [5] and in [6] was > 100 µM (inactive) in each case. The GI50 in test [7], in test [8], in [9], in [10], in [11] and in [12] was > 100 µM (inactive) in each case. In addition, the GI50 in test [13], in [14], in [15], in test [16], in [17] and in test [18] was > 100 µM (inactive) in each case. For the same compound, the GI50 in test [19] is > 100 µM (inactive).

With `COc1ccc2[nH]c3c(C)c4ccnc(NCCCN(C)CCCN)c4c(C)c3c2c1`, the GI50 is 0.217 µM (active) in test [1]; 0.0442 µM (active) in test [2]; 0.156 µM (active) in [3]; 0.0726 µM (active) in [4]; 0.225 µM (active) in test [5]; 0.159 µM (active) in test [6]. The GI50 is 0.198 µM (active) in test [7]; 0.195 µM (active) in test [8]; 0.111 µM (active) in [9]; 0.202 µM (active) in test [10]; 0.0189 µM (active) in [11]; 0.176 µM (active) in [12]. The GI50 was 0.162 µM (active) in test [13]; 0.0622 µM (active) in test [14]; 0.138 µM (active) in test [15]; 0.0274 µM (active) in [16]; 0.213 µM (active) in [17]; 0.186 µM (active) in [18]. For the same compound, the GI50 is 0.102 µM (active) in [19] and 0.207 µM (active) in [20].

Turning to `Oc1ccc(/N=N/c2ccc(Cl)cc2)cc1`, the GI50 in test [1] was 17.3 µM (inactive); in test [2], 14.2 µM (inactive); in [3], 14.4 µM (inactive); in test [4], 4.63 µM (inactive); in test [5], 17.3 µM (inactive); in test [6], 15.7 µM (inactive). Besides, the GI50 in [7] is 11.9 µM (inactive); in test [8] it was 14.9 µM (inactive); in [9], 13.2 µM (inactive); in test [10], 16.4 µM (inactive); in test [11], 11.6 µM (inactive); in test [12], 17.4 µM (inactive). For the same compound, the GI50 in test [13] is 16.6 µM (inactive); in test [14], 15.4 µM (inactive); in [15], 17.7 µM (inactive); in test [16] it was 17.1 µM (inactive); in [17], 18 µM (inactive); in [18], 19.5 µM (inactive). For the same compound, the GI50 in test [19] is 30.5 µM (inactive); in test [20], 13.7 µM (inactive).

Turning to `CC(=O)O[C@H]1[C@@H](OC2CCCC2(c2ccccc2)c2ccccc2)O[N+]([O-])=C[C@@]12COCc1cc3c(cc12)OCO3` (some centres undefined), the GI50 in [1] was 1.99 µM (inactive); in test [2], 8.57 µM (inactive); in test [3] it was 4.32 µM (inactive); in test [4], 2.83 µM (inactive); in test [5], 3.02 µM (inactive); in [6], 3.25 µM (inactive). For the same compound, the GI50 in test [7] was 2.72 µM (inactive); in test [8] it was 3.66 µM (inactive); in test [9] it was 2.52 µM (inactive); in [10], 13.2 µM (inactive); in test [11], 1.98 µM (inactive); in test [12] it was 18.7 µM (inactive). In addition, the GI50 in [13] was 4.24 µM (inactive); in [14], 5.74 µM (inactive); in test [15], 2.87 µM (inactive); in test [16] it was 3.78 µM (inactive); in test [17], 15.1 µM (inactive); in [18], 2.32 µM (inactive). The GI50 in test [19] was 7.03 µM (inactive); in test [20], 4.42 µM (inactive).

Regarding `Cc1ccc(O)c(C(c2cc(C)ccc2O)c2cc([N+](=O)[O-])ccc2O)c1`, the GI50 in [1] was 17.2 µM (inactive); in test [2] it was 12.1 µM (inactive); in [3] it was 12.2 µM (inactive); in test [4], 13.6 µM (inactive); in [5], 15.2 µM (inactive); in test [6], 12.4 µM (inactive). Further, the GI50 in test [7] was 31.7 µM (inactive); in test [8], 15 µM (inactive); in test [9], 6.12 µM (inactive); in test [10], 12.4 µM (inactive); in test [11], 13.2 µM (inactive); in test [12] it was 14.3 µM (inactive). In addition, the GI50 in test [13] is 3.66 µM (inactive); in test [14] it was 17.8 µM (inactive); in test [15] it was 7.62 µM (inactive); in test [16], 14.7 µM (inactive); in [17] it was > 10 µM (inactive); in test [18], 8.43 µM (inactive). For the same compound, the GI50 was 24.3 µM (inactive) in test [19] and 7.74 µM (inactive) in test [20].

Regarding `CC(=O)OC1COC(n2nc(/C=C/c3ccc(Cl)cc3)c(=O)n(/N=C/c3ccccc3)c2=S)C(OC(C)=O)C1OC(C)=O` (centres undefined), the GI50 in test [1], in test [2], in test [3], in test [4], in test [5] and in [6] was > 100 µM (inactive) throughout. The GI50 in test [7], in [8], in test [9], in test [10], in test [11] and in test [12] was > 100 µM (inactive) each time. Besides, the GI50 in test [13], in [14], in [15], in test [16], in test [17] and in test [18] was > 100 µM (inactive) in each case. Further, the GI50 in test [19] and in test [20] was > 100 µM (inactive) in each case.

As to `CC1C(c2ccccc2)OP(=O)(OC(C#N)c2ccccc2)N1C` (centres undefined), the GI50 in [1] is > 100 µM (inactive); in test [2], > 100 µM (inactive); in test [3], > 100 µM (inactive); in [4], 29.2 µM (inactive); in [5], > 100 µM (inactive); in test [6], 48.4 µM (inactive). Further, the GI50 in test [7] is 79.6 µM (inactive); in test [8], 81.1 µM (inactive); in test [9] it was 37.8 µM (inactive); in [10], > 100 µM (inactive); in test [11], > 100 µM (inactive); in test [12] it was > 100 µM (inactive). Besides, the GI50 in test [13] is > 100 µM (inactive); in test [14] it was > 100 µM (inactive); in test [15], > 100 µM (inactive); in test [16], > 100 µM (inactive); in [17], > 100 µM (inactive); in [18] it was 91.4 µM (inactive). Further, the GI50 in test [19] is 97.9 µM (inactive); in test [20] it was 97.3 µM (inactive).

Consider `Nc1ccn(C=C=CCO)c(=O)n1`, for which the GI50 was > 100 µM (inactive) in [1]; > 100 µM (inactive) in test [2]; > 100 µM (inactive) in test [3]; 7.43 µM (inactive) in test [4]; > 100 µM (inactive) in [5]; > 78.5 µM (inactive) in test [6]. Moreover, the GI50 in [7] is > 100 µM (inactive); in test [8] it was > 100 µM (inactive); in [9], 5.85 µM (inactive); in [10] it was > 100 µM (inactive); in test [11] it was > 77.3 µM (inactive); in [12] it was > 100 µM (inactive). The GI50 in test [13] was 229 µM (inactive); in test [14] it was > 100 µM (inactive); in test [15] it was > 100 µM (inactive); in [16], > 100 µM (inactive); in test [17], > 100 µM (inactive); in test [18], 190 µM (inactive). Moreover, the GI50 in [19] and in test [20] was > 100 µM (inactive) in each case.
